From US20200405696A1, “INHIBITORS OF INDOLEAMINE 2,3-DIOXYGENASE AND/OR TRYPTOPHAN 2,3-DIOXYGENASE” (IDORSIA PHARMACEUTICALS LTD, priority 2018, published 2020)

Columns and labels:
[1] = target: T1, Recombinant full-length human IDO1 (Homo sapiens, UniProt P14902); assay: IDO1 enzymatic assay (NFK quantified by LCMS); format: biochemical; conditions: 2 nM enzyme, 5 μM L-tryptophan, pH6.5, 30 minutes pre-incubation at RT; mean values when measured multiple times; read-out: hIDO activity (IC50 in nM)
T1 construct: Recombinant full-length human IDO1 with a N-terminal hexahistidine tag; hexahistidine (His6) (N); made in house; host or cells: E. coli
Outline: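 IC50 comes from four-parameter logistic fits of duplicate data, with NFK quantified by LCMS and normalized to L-Trp-(indole-d5). Compound (0.5 nM–10 μM) was preincubated 30 min at RT with 2 nM E. coli-expressed IDO1 before a 30 min reaction with 5 μM tryptophan in pH 6.5 buffer containing ascorbate and methylene blue.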

[2] = target: T2, Recombinant human TDO comprising amino acids 19-407 (Homo sapiens, UniProt P48775); assay: TDO2 enzymatic assay (NFK quantified by LCMS); format: biochemical; conditions: 15 nM enzyme, 200 μM L-tryptophan, pH7, 30 minutes pre-incubation at RT; mean values when measured multiple times; read-out: hTDO activity (IC50 in nM)
T2 construct: Recombinant human TDO comprising amino acids 19-407 with a N-terminal hexahistidine tag; hexahistidine (His6) (N); made in house; host or cells: E. coli
Outline: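 NFK formed over 30 min at RT from 200 μM L-tryptophan was measured by LCMS, normalized to d5-tryptophan, after compound (0.5 nM–10 μM, duplicates, 0.6% DMSO) was preincubated 30 min with 15 nM recombinant His-tagged TDO 19-407 in phosphate buffer pH 7. IC50 from four-parameter logistic fit; repeats averaged.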

T1 sequence (P14902 whole entry): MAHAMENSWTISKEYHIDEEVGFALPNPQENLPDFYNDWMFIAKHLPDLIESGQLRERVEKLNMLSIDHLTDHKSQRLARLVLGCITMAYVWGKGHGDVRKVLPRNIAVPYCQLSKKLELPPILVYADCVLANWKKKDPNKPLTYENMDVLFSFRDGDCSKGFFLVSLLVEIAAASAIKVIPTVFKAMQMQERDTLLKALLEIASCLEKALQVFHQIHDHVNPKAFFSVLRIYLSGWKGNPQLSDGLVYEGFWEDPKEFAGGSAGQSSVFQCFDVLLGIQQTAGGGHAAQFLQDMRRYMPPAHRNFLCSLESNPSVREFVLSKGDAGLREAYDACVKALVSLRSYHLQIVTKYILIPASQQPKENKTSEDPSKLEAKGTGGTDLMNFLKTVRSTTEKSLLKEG
T2 sequence (P48775 19-406 limits assumed): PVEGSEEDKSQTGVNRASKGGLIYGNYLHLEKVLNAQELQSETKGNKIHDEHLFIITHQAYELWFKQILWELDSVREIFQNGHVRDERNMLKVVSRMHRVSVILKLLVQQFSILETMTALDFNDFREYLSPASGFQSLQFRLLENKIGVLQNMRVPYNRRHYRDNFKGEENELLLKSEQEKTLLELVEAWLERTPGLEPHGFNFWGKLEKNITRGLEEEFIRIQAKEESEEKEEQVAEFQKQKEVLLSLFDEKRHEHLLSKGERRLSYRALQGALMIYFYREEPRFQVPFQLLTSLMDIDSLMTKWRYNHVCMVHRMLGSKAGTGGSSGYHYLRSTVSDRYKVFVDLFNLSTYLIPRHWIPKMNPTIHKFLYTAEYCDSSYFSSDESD

| SMILES | IC50 [1] [nM] | IC50 [2] [nM] |
| --- | --- | --- |
| COc1ccc(-n2cc(C(O)c3c(C4CC4)sc4cncn34)nn2)cc1Cl (racemic) [Example 289, rac-[1-(3-Chloro-4-methoxy-phenyl)-1H-[1,2,3]triazol-4-yl]-(2-cyclopropyl-imidazo[5,1-b]thiazol-3-yl)-methanol] | 7.56 | > 10200 |
| COc1ccc(-n2cc(C(O)c3c(C4CC4)sc4cncn34)nn2)cc1Br (racemic) [Example 290, rac-[1-(3-Bromo-4-methoxy-phenyl)-1H-[1,2,3]triazol-4-yl]-(2-cyclopropyl-imidazo[5,1-b]thiazol-3-yl)-methanol] | 15.3 | > 10200 |
| COc1ccc(-n2cc(C(O)c3c(C4CC4)sc4cncn34)nn2)cc1I (racemic) [Example 291, rac-(2-Cyclopropyl-imidazo[5,1-b]thiazol-3-yl)-[1-(3-iodo-4-methoxy-phenyl)-1H-[1,2,3]triazol-4-yl]-methanol] | 41.1 | > 10200 |
| COc1ccc(-n2cc(C(O)c3c(C4CC4)sc4cncn34)nn2)c(F)c1Cl (racemic) [Example 292, rac-[1-(3-Chloro-2-fluoro-4-methoxy-phenyl)-1H-[1,2,3]triazol-4-yl]-(2-cyclopropyl-imidazo[5,1-b]thiazol-3-yl)-methanol] | 28.9 | > 10200 |
| C=C(C)c1sc2cncn2c1C(O)c1cn(-c2ccc(OCCC(C)(C)O)c(Cl)c2)nn1 (racemic) [Example 293, rac-4-(2-Chloro-4-{4-[hydroxy-(2-isopropenyl-imidazo[5,1-b]thiazol-3-yl)-methyl]-[1,2,3]triazol-1-yl}-phenoxy)-2-methyl-butan-2-ol] | 17.6 | > 10200 |
| COC(=O)c1cccc(Cn2cc(C(O)c3c(C4CC4)sc4cncn34)nn2)c1 (racemic) [Example 294, rac-3-{4-[(2-Cyclopropyl-imidazo[5,1-b]thiazol-3-yl)-hydroxy-methyl]-[1,2,3]triazol-1-ylmethyl}-benzoic acid methyl ester] | 35.8 | > 10200 |
| COc1ccc(-n2nnc(C(O)c3c(C4CC4)sc4cncn34)c2C)cc1Cl (racemic) [Example 295, rac-[1-(3-Chloro-4-methoxy-phenyl)-5-methyl-1H-[1,2,3]triazol-4-yl]-(2-cyclopropyl-imidazo[5,1-b]thiazol-3-yl)-methanol] | 6.63 | 8840 |
| CCOc1ccc(-n2nnc(C(O)c3c(C4CC4)sc4cncn34)c2C)cc1Cl (racemic) [Example 296, rac-[1-(3-Chloro-4-ethoxy-phenyl)-5-methyl-1H-[1,2,3]triazol-4-yl]-(2-cyclopropyl-imidazo[5,1-b]thiazol-3-yl)-methanol] | 14.1 | > 10200 |
| COC(=O)c1ccc(Cn2cc(C(O)c3c(C4CC4)sc4cncn34)nn2)cc1 (racemic) [Example 297, rac-4-{4-[(2-Cyclopropyl-imidazo[5,1-b]thiazol-3-yl)-hydroxy-methyl]-[1,2,3]triazol-1-ylmethyl}-benzoic acid methyl ester] | 16 | > 10200 |
| Oc1cccc(Cn2cc(C(O)c3c(C4CC4)sc4cncn34)nn2)c1 (racemic) [Example 298, rac-3-{4-[(2-Cyclopropyl-imidazo[5,1-b]thiazol-3-yl)-hydroxy-methyl]-[1,2,3]triazol-1-ylmethyl}-phenol] | 23.3 | > 10200 |
| C=C(C)c1sc2cncn2c1C(O)c1cn(-c2ccc(OCC3(F)COC3)c(Cl)c2)nn1 (racemic) [Example 299, rac-{1-[3-Chloro-4-(3-fluoro-oxetan-3-ylmethoxy)-phenyl]-1H-[1,2,3]triazol-4-yl}-(2-isopropenyl-imidazo[5,1-b]thiazol-3-yl)-methanol] | 34.8 | > 10200 |
| COc1cc(F)c(-n2cc(C(O)c3c(C4CC4)sc4cncn34)nn2)cc1Cl (racemic) [Example 300, rac-[1-(5-Chloro-2-fluoro-4-methoxy-phenyl)-1H-[1,2,3]triazol-4-yl]-(2-cyclopropyl-imidazo[5,1-b]thiazol-3-yl)-methanol] | 6.66 | > 10200 |
| C=C(C)c1sc2cncn2c1C(O)c1cn(-c2ccc(OCCCO)c(Cl)c2)nn1 (racemic) [Example 301, rac-3-(2-Chloro-4-{4-[hydroxy-(2-isopropenyl-imidazo[5,1-b]thiazol-3-yl)-methyl]-[1,2,3]triazol-1-yl}-phenoxy)-propan-1-ol] | 25.1 | > 10200 |

More lines, now with the values ahead:

| IC50 [1] [nM] | IC50 [2] [nM] | SMILES |
| --- | --- | --- |
| 6.88 | > 10200 | CCc1sc2cncn2c1C(O)c1cn(-c2ccc(OCCC(C)(C)O)c(Cl)c2)nn1 (racemic) [Example 302, rac-4-(2-Chloro-4-{4-[(2-ethyl-imidazo[5,1-b]thiazol-3-yl)-hydroxy-methyl]-[1,2,3]triazol-1-yl}-phenoxy)-2-methyl-butan-2-ol] |
| 23.6 | > 10200 | CC(C)(O)CCOc1ccc(-n2cc(C(O)c3c(C4(C)CC4)sc4cncn34)nn2)cc1Cl (racemic) [Example 303, rac-4-[2-Chloro-4-(4-{hydroxy-[2-(1-methyl-cyclopropyl)-imidazo[5,1-b]thiazol-3-yl]-methyl}-[1,2,3]triazol-1-yl)-phenoxy]-2-methyl-butan-2-ol] |
| 52.2 | > 10200 | Oc1ccc(Cn2cc(C(O)c3c(C4CC4)sc4cncn34)nn2)cc1 (racemic) [Example 304, rac-4-{4-[(2-Cyclopropyl-imidazo[5,1-b]thiazol-3-yl)-hydroxy-methyl]-[1,2,3]triazol-1-ylmethyl}-phenol] |
| 71.3 | > 10200 | Oc1ccccc1Cn1cc(C(O)c2c(C3CC3)sc3cncn23)nn1 (racemic) [Example 305, rac-2-{4-[(2-Cyclopropyl-imidazo[5,1-b]thiazol-3-yl)-hydroxy-methyl]-[1,2,3]triazol-1-ylmethyl}-phenol] |
| 17.9 | > 10200 | COc1ccc(-n2cc(C(O)c3c(C4CC4)sc4cncn34)nn2)c(C)c1 (racemic) [Example 306, rac-(2-Cyclopropyl-imidazo[5,1-b]thiazol-3-yl)-[1-(4-methoxy-2-methyl-phenyl)-1H-[1,2,3]triazol-4-yl]-methanol] |
| 13.9 | > 10200 | CC(C)(O)CCOc1ccc(-n2cc(C(O)c3c(C(C)(F)F)sc4cncn34)nn2)cc1Cl (racemic) [Example 307, rac-4-[2-Chloro-4-(4-{[2-(1,1-difluoro-ethyl)-imidazo[5,1-b]thiazol-3-yl]-hydroxy-methyl}-[1,2,3]triazol-1-yl)-phenoxy]-2-methyl-butan-2-ol] |
| 50.1 | > 10200 | OCc1ccc(-n2cc(C(O)c3c(C4CC4)sc4cncn34)nn2)cc1 (racemic) [Example 310, rac-(2-Cyclopropyl-imidazo[5,1-b]thiazol-3-yl)-[1-(4-hydroxymethyl-phenyl)-1H-[1,2,3]triazol-4-yl]-methanol] |
| 137 | > 10200 | COc1cc(C)c(-n2cc(C(O)c3c(C4CC4)sc4cncn34)nn2)c(C)c1 (racemic) [Example 311, rac-(2-Cyclopropyl-imidazo[5,1-b]thiazol-3-yl)-[1-(4-methoxy-2,6-dimethyl-phenyl)-1H-[1,2,3]triazol-4-yl]-methanol] |
| 29.4 | > 10200 | OC(c1cn(-c2ccc(OCCOCC(F)(F)F)cc2)nn1)c1c(C2CC2)sc2cncn12 (racemic) [Example 312, rac-(2-Cyclopropyl-imidazo[5,1-b]thiazol-3-yl)-(1-{4-[2-(2,2,2-trifluoro-ethoxy)-ethoxy]-phenyl}-1H-[1,2,3]triazol-4-yl)-methanol] |
| 13.7 | > 10200 | CC1(c2sc3cncn3c2C(O)c2cn(-c3ccc(OCCCO)c(Cl)c3)nn2)CC1 (racemic) [Example 313, rac-3-[2-Chloro-4-(4-{hydroxy-[2-(1-methyl-cyclopropyl)-imidazo[5,1-b]thiazol-3-yl]-methyl}-[1,2,3]triazol-1-yl)-phenoxy]-propan-1-ol] |
| 10.2 | > 10200 | CC(F)(F)c1sc2cncn2c1C(O)c1cn(-c2ccc(OCCCO)c(Cl)c2)nn1 (racemic) [Example 314, rac-3-[2-Chloro-4-(4-{[2-(1,1-difluoro-ethyl)-imidazo[5,1-b]thiazol-3-yl]-hydroxy-methyl}-[1,2,3]triazol-1-yl)-phenoxy]-propan-1-ol] |
| 19.5 | > 10200 | CC1(c2sc3cncn3c2C(O)c2cn(-c3ccc(OCC4(F)COC4)c(Cl)c3)nn2)CC1 (racemic) [Example 315, rac-{1-[3-Chloro-4-(3-fluoro-oxetan-3-ylmethoxy)-phenyl]-1H-[1,2,3]triazol-4-yl}-[2-(1-methyl-cyclopropyl)-imidazo[5,1-b]thiazol-3-yl]-methanol] |
| 13 | > 10200 | CC(F)(F)c1sc2cncn2c1C(O)c1cn(-c2ccc(OCC3(F)COC3)c(Cl)c2)nn1 (racemic) [Example 316, rac-{1-[3-Chloro-4-(3-fluoro-oxetan-3-ylmethoxy)-phenyl]-1H-[1,2,3]triazol-4-yl}-[2-(1,1-difluoro-ethyl)-imidazo[5,1-b]thiazol-3-yl]-methanol] |
